Marks after values point to notes of the source that are not given here.
Legend:
MERS-CoV [1] = details: vs untreated animals; cited from earlier work
MERS-CoV [2] = details: in vitro; cited from earlier work
[3] = test system: myofibroblasts from mouse lungs 21 day post BLM; test: Double transfection of myofibroblasts with miR-29a mimic and miR-199-3p inhibitor; format: cell-based; details: mouse isolates (data not shown)
[4] = test system: myofibroblasts isolated from lungs of patients with IPF; test: as above; format: cell-based, human
MSC migration = details: cited from earlier work
ER = test: ERE luciferase reporter (ER transcriptional activation) in hASCs
MERS-CoV [5] = details: in vitro; cited from earlier work; remark: listed apart in the source
CXCR4 = molecular target: T1, CXCR4 (Mus musculus, UniProt P70658); details: cited from earlier work
T1 construct: host or cells: BM-MSCs (endogenous receptor)
T1 sequence (P70658 whole entry): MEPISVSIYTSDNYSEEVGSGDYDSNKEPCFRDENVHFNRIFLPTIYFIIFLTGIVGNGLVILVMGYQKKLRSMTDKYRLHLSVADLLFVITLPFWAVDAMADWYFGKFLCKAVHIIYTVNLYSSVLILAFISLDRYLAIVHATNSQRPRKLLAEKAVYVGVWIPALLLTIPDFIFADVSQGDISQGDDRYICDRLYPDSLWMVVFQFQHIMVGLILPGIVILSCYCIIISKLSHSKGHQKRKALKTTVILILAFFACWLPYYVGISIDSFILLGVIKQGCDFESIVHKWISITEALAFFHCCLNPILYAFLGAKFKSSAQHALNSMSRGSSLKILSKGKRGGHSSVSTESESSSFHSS

[6] = test system: BLM-induced lung injury in 22-month old male C57BL/6 mice; test: BLM-induced pulmonary fibrosis in aged mice, ASCs given on day 12; format: in vivo, mouse; details: n = 4-5/group
AR mRNA = AR mRNA expression in lungs of BLM-treated male mice
[7] = double transfection miR-29a mimic + miR-199-3p inhibitor, 48 hours post-transfection
[8] = lung tissue, day 21, ASCs on day 12 post-BLM

COc1c(C)c2c(c(O)c1C/C=C(\C)CCC(=O)O)C(=O)OC2 [MPA, Mycophenolic acid]
disease outcome and viral loads (MERS-CoV [1]): developed severe and/or fatal disease with higher mean viral loads
inhibition activity against MERS-CoV (MERS-CoV [2]): strong inhibition activity

miR-29a mimic: plasmid containing miR-29a mimic AACCGATTTCAGATGGTGCT (SEQ ID NO: 1), Exiqon (described as plasmid-borne mimic, chemistry not given here)
MMP-2 activity [3]: decreased MMP-2 activity
Upregulation of miR-29a (RT-PCR) ([4]; co-transfection with miR-199-3p inhibitor): > 5000 fold
MMP-2 activity (zymography) [4, 7]: decreased MMP-2 activity

miR-199-3p inhibitor: plasmid containing miR-199-3p inhibitor AACCAATGTGCAGACTACTG (SEQ ID NO: 2), Exiqon (described as plasmid-borne inhibitor, chemistry not given here)
CAV-1 expression [3]: increased CAV-1 expression
downregulation of miR-199-3p expression (RT-PCR) ([4]; co-transfection with miR-29a mimic): at least 100 fold
CAV-1 expression (western) [4, 7]: increased CAV-1 expression

COc1cccc(-c2cc(=O)c3ccccc3o2)c1N [PD98059]
effect on IGF-1-induced increase in MSC migration in response to SDF-1 (MSC migration): not

C[C@]12CC[C@@H]3c4ccc(O)cc4CC[C@H]3[C@@H]1CC[C@@H]2O [E2, 17β-estradiol]
ER transcriptional activation (luciferase/B-gal) (ER; hASCs from post-menopausal women): less than a two-fold change
ER transcriptional activation (luciferase/B-gal) (ER; hASCs from pre-menopausal women, E2 10 nM): greater than sixfold
ER transcriptional activation (luciferase/B-gal) (ER; hASCs from pre-menopausal women, E2 0.1 and 1 nm): greater than five-fold

Cc1cccc(C)c1OCC(=O)N[C@@H](Cc1ccccc1)[C@@H](O)C[C@H](Cc1ccccc1)NC(=O)[C@H](C(C)C)N1CCCNC1=O [lopinavir]
50% effective cytotoxic concentration (EC50) against MERS-CoV (MERS-CoV [5]): suboptimal

C[C@]12CC[C@@H]3c4ccc(O)cc4C[C@@H](CCCCCCCCC[S+]([O-])CCCC(F)(F)C(F)(F)F)[C@H]3[C@@H]1CC[C@@H]2O (stereo partly shown) [ICI 182,780, fulvestrant]
block of E2-induced ER transcriptional activation (ER; hASCs, with E2 1 or 10 nM): able to block activation by E2

TN14003
inhibition of SDF-1 promoted chemotactic migration of BM-MSCs (CXCR4): completely inhibited

bleomycin sulfate [BLM]
Interval weight change at day 7 (mean ± SEM) ([6]; day 7 after intratracheal BLM 2.0 U/kg (before ASC administration on day 12)): −14.2 ± 1.7%^a
Overall weight change at day 21 (mean ± SEM) ([6]; day 21 sacrifice, BLM 2.0 U/kg, ASCs 5×10^5 by tail vein on day 12): −27.3 ± 3.7%^aa
Collagen type 1α1 mRNA/18s [6, 8]: 213 ± 63
TNF-α mRNA/18S [6, 8]: 0.80 ± 0.180^a
αvintegrin mRNA/18S [6, 8]: 1.09 ± 0.14^a
increase of AR mRNA in lungs (AR mRNA; BLM-treated male mice): six-fold increase
R mRNA expression/18s (AR mRNA; lungs of BLM-treated male mice (n = 15) vs saline (n = 16), p < 0.05): 2.0 ± 0.5

From patent US12097222B2, “Methods for attenuating viral infection and for treating lung injury” (Spiritus Therapeutics, Inc., priority 2019, dated 2024)
